# Source: US12404232B2, “Compounds and compositions for intracellular delivery of therapeutic agents” (ModernaTX, Inc., priority 2015, dated 2025)
# Tests used:
# [1] = Encapsulation of RNA by the nanoparticle composition (QUANT-IT RIBOGREEN RNA assay); assay type: physicochemical
# From the text: The efficiency of encapsulation of a therapeutic and/or prophylactic describes the amount of therapeutic and/or prophylactic that is encapsulated or otherwise associated with a nanoparticle composition after preparation, relative to the initial amount provided. The encapsulation efficiency is desirably high (e.g., close to 100%). The encapsulation efficiency may be measured, for example, by comparing the amount of therapeutic and/or prophylactic in a solution containing the nanoparticle composition before and after breaking up the nanoparticle composition with one or more organic solvents or detergents. Fluorescence may be used to measure the amount of free therapeutic and/or prophylactic (e.g., RNA) in a solution. For the nanoparticle compositions described herein, the encapsulation efficiency of a therapeutic and/or prophylactic may be at least 50%, for example 50%, 55%, 60%, 65%, 70%, 75%, 80%, 85%, 90%, 91%, 92%, 93%, 94%, 95%, 96%, 97%, 98%, 99%, or 100%. In some embodiments, the encapsulation efficiency may be at least 80%. In certain embodiments, the encapsulation efficiency may be at least 90%.
# For nanoparticle compositions including an RNA, a QUANT-IT™ RIBOGREEN® RNA assay (Invitrogen Corporation Carlsbad, CA) can be used to evaluate the encapsulation of an RNA by the nanoparticle composition. The samples are diluted to a concentration of approximately […] in a TE buffer solution (10 mM Tris-HCl, 1 mM EDTA, pH 7.5). 50 μL of the diluted samples are transferred to a polystyrene 96 well plate and either 50 μL of TE buffer or 50 μL of a 2% Triton X-100 solution is added to the wells. The plate is incubated at a temperature of 37° C. for 15 minutes. The RIBOGREEN® reagent is diluted 1:100 in TE buffer, and 100 μL of this solution is added to each well. The fluorescence intensity can be measured using a fluorescence plate reader (Wallac Victor 1420 Multilablel Counter; Perkin Elmer, Waltham, MA) at an excitation wavelength of, for example, about 480 nm and an emission wavelength of, for example, about 520 nm. The fluorescence values of the reagent blank are subtracted from that of each of the samples and the percentage of free RNA is determined by dividing the fluorescence intensity of the intact sample (without addition of Triton X-100) by the fluorescence value of the disrupted sample (caused by the addition of Triton X-100).
# Initial studies were performed to compare the delivery efficiency of nanoparticle compositions including various compounds according to Formula (I), (IA), (II), (IIa), (IIb), (IIc), (IId) or (IIe). The cationic lipid MC3 is a current standard in the art. Accordingly, the standard MC3 formulation including about 50 mol % MC3, about 10 mol % DSPC, about 38.5 mol % cholesterol, and about 1.5 mol % PEG-DMG was used as a basis for this study. Nanoparticle compositions including DSPC as a phospholipid, cholesterol as a structural lipid, PEG-DMG as a PEG lipid, an RNA, and a compound according to Formula (I), (IA), (II), (IIa), (IIb), (IIc), (IId) or (IIe) selected from Compounds 1-159, 168-170, and 173-175 were prepared according to or via methods similar to those described in Examples 1 and 2. The ratios of the lipids were 50:10:38.5:1.5 mol % for the lipid according to Formula (I), (IA), (II), (IIa), (IIb), (IIc), (IId) or (IIe):DSPC:cholesterol:PEG-DMG. The RNA used was an mRNA encoding G5 luciferase (Luc) or G5 hEPO. Tables 1A-1B summarize the content and characteristics of the formulations. […]
# mice [2] = assay: hEPO expression in mice after intravenous administration; assay type: in vivo; conditions: for hEPO expression (pg/ml) 3h / hEPO expression (pg/ml) 6 h / hEPO expression (pg/ml) 24 h: 0.5 mpk
# Method: Sample formulations of nanoparticle compositions including different lipids are generally first evaluated according to Luc expression in vivo. The activity of several such compositions was further evaluated using an mRNA encoding hEPO. Nanoparticle compositions including Compounds 6, 18, 25, 30, 108-112, 60, and 122, or MC3 were prepared according to Example 2.
# The expression of hEPO and cytokine induction in mice intravenously administered a nanoparticle composition at a dose of 0.5 mpk were measured at 3, 6, and 24 hours. […] The expression of hEPO in mice intramuscularly administered a nanoparticle composition from Table 1B at a dose of 0.01 mpk were measured at 3, 6, and 24 hours. […] (see also FIG. 9.)
# Table 12 compares the nanoparticle compositions including compounds according to Formula (I), (IA), (II), (IIa), (IIb), (IIc), (IId) or (IIe) to the compositions including MC3 on the basis of expression and flux levels. […] Thus, these lipids may be useful in nanoparticle composition therapeutics. […]
# mice [3] = assay: Luc expression (total flux) after intramuscular administration; assay type: in vivo; conditions: 6 hours after intramuscular administration, Luc mRNA (Table 5B)
# [4] = hEPO mRNA, (50:10:38.5:1.5) (Table 10)
SMILES,"EE (%) [1, 4]",EE (%) ([1]; mRNA encoding anti-HA antibody (Table 33)),"hEPO concentrations compared with MC3 formulations at each time point (mice [2]; 0.5 mpk, 3, 6 and 24 hours)",hEPO expression (pg/ml) 3h (mice [2]),hEPO expression (pg/ml) 6 h (mice [2]),hEPO expression (pg/ml) 24 h (mice [2]),EE (%) ([1]; formulated with hEPO mRNA (Table 1B)),EE (%) ([1]; nanoparticle composition 50:10:38.5:1.5 mol % (Table 1A)),Total flux (p/s) 0.01 mpk Dose (mice [3])
"CCCCCCCCCOC(=O)CCCCCCCN(CCO)CCCCCCCC(=O)OC(CCCCCCCC)CCCCCCCC [Compound 18, Heptadecan-9-yl 8-((2-hydroxyethyl)(8-(nonyloxy)-8-oxooctyl)amino)octanoate]",97.34%,79.3%,higher hEPO concentrations than MC3 formulations,3e+06 pg/mL,3.38e+06 pg/mL,1.8e+06 pg/mL,–,–,–
"CCCCCC=CCC=CCCCCCCCCC(CCCCCCCCC=CCC=CCCCCC)OC(=O)CCCN(C)C (stereo not shown) [MC3, heptatriaconta-6,9,28,31-tetraen-19-yl 4-(dimethylamino)butanoate, reference compound]",97.22%,–,–,1.57e+06 pg/mL,1.83e+06 pg/mL,810000 pg/mL,99.01%,97.3%,3.23E+07 p/s
